Laboratory results reported in patent US20040018562A1, “Receptor detection” (priority 2002, published 2004).

Experiments:
[1] = tested on: membrane protein from CHO-M1; experiment: Binding of enzyme donor-GTP gamma-S conjugate to membrane protein (open/close readings); conditions: 1 hr
Method: 20 ul of membrane protein (10 ug from CHO-M1) in a binding buffer (50 mM HEPES, 20 mM NaCl, 10 mM MgCl2, with 1 mM DTT or 0.01% CHAPS) was incubated with 10 ul of enzyme donor-GTP gamma-S conjugate at various concentrations for 60 minutes at ambient temperature. 10 ul of enzyme acceptor (0.18 uM) and 15 ul of the chemiluminescent reagent, Galacton Star with Emerald plus (Applied Biosystems, Foster city, Calif.) added and the microtiter plate read on the Lumicount (Packard, Meridien, Conn.). The readings are tabulated below with ED46 mer used as control. Open and Close refer to free and bound enzyme donor conjugate to enzyme acceptor. Percentage inhibition is calculated by (open-close)/open readings.

[2] = tested on: membrane protein from CHO-M1; experiment: Modulation of enzyme donor-GTP gamma-S conjugate inhibition by GTP gamma-S; type: binding; conditions: 1 hr; for % I: absence of GTP-gamma-S; for GTP-r-S (reading): membrane preincubated with GTP gamma-S
Method: In order to test if the inhibition was capable of being modulated. The experiments were performed by incubating the membrane preparation with GTPgamma-S (10 ul of 10 uM). Higher concentrations of enzyme donor together with another detergent saponin were tried to enhance signal and minimize non-specific binding.
10 ul of membrane protein (10 ug from CHO-M1) in a binding buffer (50 mM HEPES, 20 mM NaCl, 10 mM MgCl2, with 0.01% CHAPS or 0.01% saponin) was incubated with 10 ul of GTP gamma-S for 30 minutes at room temperature 10 ul of the enzyme donor conjugate at various concentrations was added and the mixture incubated for 60 minutes at ambient temperature. 10 ul of enzyme acceptor (0.45 uM) and 15 ul of the chemiluminescent reagent, Galacton Star with Emerald plus (Applied Biosystems, Foster city, Calif.) added and the microtiter plate read on the Lumicount (Packard, Meridien, Conn.). The readings are tabulated below with ED46 mer used as control. Open and close refer to free and bound enzyme donor conjugate to enzyme acceptor. Percentage inhibition is calculated by (open-close)/open readings and is in the absence of GTP-gamma-S.

[3] = Buffer with 0.01% CHAPS, 0.5 nM
[4] = Buffer with 0.01% Saponin, 0.5 nM
[5] = Buffer with 0.01% Saponin, 5 nM
[6] = Buffer with 0.01% Saponin, 10 nM
[7] = Buffer with 0.01% Saponin, 25 nM
[8] = Buffer with 0.01% Saponin, 50 nM

SLAVVLQRRDWENPGVTQLNKLAAHPPFASWRNSEEARTDCPSQQL [45+1 mer, 46 mer enzyme donor fragment]
% I ([1]; Binding buffer wCHAPS, 0.1 nM): 10.0%
close ([1]; Binding buffer wCHAPS, 0.1 nM): 1706
open ([1]; Binding buffer wCHAPS, 0.1 nM): 1895
% I ([1]; Binding buffer wCHAPS, 0.5 nM): 3.9%
close ([1]; Binding buffer wCHAPS, 0.5 nM): 1846
open ([1]; Binding buffer wCHAPS, 0.5 nM): 1921
% I ([1]; Binding buffer wCHAPS, 5 nM): 1.7%
close ([1]; Binding buffer wCHAPS, 5 nM): 3383
open ([1]; Binding buffer wCHAPS, 5 nM): 3442
% I ([1]; Binding buffer wCHAPS, 10 nM): 6.0%
close ([1]; Binding buffer wCHAPS, 10 nM): 5017
open ([1]; Binding buffer wCHAPS, 10 nM): 5339
% I ([1]; Binding buffer wDTT, 0.1 nM): 16.8%
close ([1]; Binding buffer wDTT, 0.1 nM): 1357
open ([1]; Binding buffer wDTT, 0.1 nM): 1632
% I ([1]; Binding buffer wDTT, 0.5 nM): 15.2%
close ([1]; Binding buffer wDTT, 0.5 nM): 1338
open ([1]; Binding buffer wDTT, 0.5 nM): 1579
% I ([1]; Binding buffer wDTT, 5 nM): 6.8%
close ([1]; Binding buffer wDTT, 5 nM): 2372
open ([1]; Binding buffer wDTT, 5 nM): 2544
% I ([1]; Binding buffer wDTT, 10 nM): 12.6%
close ([1]; Binding buffer wDTT, 10 nM): 3502
open ([1]; Binding buffer wDTT, 10 nM): 4006
% I ([1]; Binding buffer, 0.1 nM): 5.8%
close ([1]; Binding buffer, 0.1 nM): 1773
open ([1]; Binding buffer, 0.1 nM): 1882
% I ([1]; Binding buffer, 0.5 nM): −2.3%
close ([1]; Binding buffer, 0.5 nM): 1940
open ([1]; Binding buffer, 0.5 nM): 1896
% I ([1]; Binding buffer, 5 nM): −1.1%
close ([1]; Binding buffer, 5 nM): 2952
open ([1]; Binding buffer, 5 nM): 2921
% I ([1]; Binding buffer, 10 nM): 6.7%
close ([1]; Binding buffer, 10 nM): 4176
open ([1]; Binding buffer, 10 nM): 4474
% M [2, 3]: −1.6%
close [2, 3]: 353
open [2, 3]: 322
% I [2, 3]: −9.7%
GTP-r-S (reading) [2, 3]: 348
% M ([2]; Buffer with 0.01% CHAPS, 5 nM): 10.2%
close ([2]; Buffer with 0.01% CHAPS, 5 nM): 1318
open ([2]; Buffer with 0.01% CHAPS, 5 nM): 1214
% I ([2]; Buffer with 0.01% CHAPS, 5 nM): −8.6%
GTP-r-S (reading) ([2]; Buffer with 0.01% CHAPS, 5 nM): 1468
% M ([2]; Buffer with 0.01% CHAPS, 10 nM): 6.1%
close ([2]; Buffer with 0.01% CHAPS, 10 nM): 3265
open ([2]; Buffer with 0.01% CHAPS, 10 nM): 2971
% I ([2]; Buffer with 0.01% CHAPS, 10 nM): −9.9%
GTP-r-S (reading) ([2]; Buffer with 0.01% CHAPS, 10 nM): 3478
% M ([2]; Buffer with 0.01% CHAPS, 25 nM): −1.4%
close ([2]; Buffer with 0.01% CHAPS, 25 nM): 10782
open ([2]; Buffer with 0.01% CHAPS, 25 nM): 8526
% I ([2]; Buffer with 0.01% CHAPS, 25 nM): −26.5%
GTP-r-S (reading) ([2]; Buffer with 0.01% CHAPS, 25 nM): 10634
% M ([2]; Buffer with 0.01% CHAPS, 50 nM): 4.5%
close ([2]; Buffer with 0.01% CHAPS, 50 nM): 18587
open ([2]; Buffer with 0.01% CHAPS, 50 nM): 17367
% I ([2]; Buffer with 0.01% CHAPS, 50 nM): −7.0%
GTP-r-S (reading) ([2]; Buffer with 0.01% CHAPS, 50 nM): 19466
% M [2, 4]: 19.6%
close [2, 4]: 228
open [2, 4]: 215
% I [2, 4]: −6.4%
GTP-r-S (reading) [2, 4]: 284
% M [2, 5]: 20.2%
close [2, 5]: 827
open [2, 5]: 763
% I [2, 5]: −8.3%
GTP-r-S (reading) [2, 5]: 1035
% M [2, 6]: 11.6%
close [2, 6]: 2220
open [2, 6]: 2103
% I [2, 6]: −5.6%
GTP-r-S (reading) [2, 6]: 2510
% M [2, 7]: 10.5%
close [2, 7]: 6971
open [2, 7]: 6600
% I [2, 7]: −5.6%
GTP-r-S (reading) [2, 7]: 7790
% M [2, 8]: 8.9%
close [2, 8]: 13597
open [2, 8]: 13133
% I [2, 8]: −3.5%
GTP-r-S (reading) [2, 8]: 14932
